Patent publication US8461174B2, “Treatment for cutaneous metastases” (3M Innovative Properties Company, priority 2004, dated 2013)

Key:
[1] = tested on: cutaneous metastasis of Her2/neu-positive breast cancer (invasive lobular tumor cells); test: Topical treatment of cutaneous metastasis of breast cancer in a patient (Example 1); type: in vivo, human; settings: person one
Procedure: (§1) The IRM compound used in the examples is 1-(2-methylpropyl)-1H-imidazo[4,5-c]quinolin-4-amine, formulated as a 5% cream available under the tradename ALDARA (3M Co., St. Paul, Minn.).
person one with breast cancer (UICC stage pT1c, pN1b1, M0, G2, estrogen-positive, progesterone-positive) developed an axillary recurrence and osteolytic metastases (L2-4) despite axillary dissection and neoadjuvant and adjuvant chemotherapy. The recurrent tumor and metastases were treated with radiation. Nine months later, the breast cancer recurred locally (rpT1c, M1, G2, estrogen-negative, progesterone-negative, Her2/neu-positive) and was treated with trastuzumab and percutaneous radiation. An inflammatory erythema occurred on the upper back (FIG. 1A). On histology, invasive lobular tumor cells (keratin-positive, Her2/neu-positive, ICAM-1-positive) were present (FIGS. 1B-1E.
(§2) 1-(2-methylpropyl)-1H-imidazo[4,5-c]quinolin-4-amine was administered topically five times per week for six months.

[2] = tested on: cutaneous metastasis of invasive ductal carcinoma (Her2/neu-negative); test: Topical treatment of cutaneous metastasis of invasive ductal carcinoma in a patient (Example 2); type: in vivo, human; settings: person two; 5% cream (ALDARA) topically five times per week for six months
Procedure: as §1
person two with invasive ductal carcinoma (UICC stage T2, pN1, B2, cM0) that was estrogen-negative, progesterone-negative, and Her2/neu-negative was treated by mastectomy and adjuvant chemotherapy. Infraclavicular and supraclavicular recurrences were treated with γ- and telecobalt radiation, intrarterial and intravenous chemotherapy. A diffuse cutaneous lesion occurred on the scapula that, upon histological examination, contained an infiltrative ductal growth pattern (FIG. 1I).
as §2

SMILES: CC(C)Cn1cnc2c(N)nc3ccccc3c21 [1-(2-methylpropyl)-1H-imidazo[4,5-c]quinolin-4-amine]
- skin lesions upon gross examination or histological examination after the treatment period ([1]; 5% cream (ALDARA) topically five times per week for six months): no skin lesions were detected
- time the patient has remained free of cutaneous metastasis ([1]; after topical treatment five times per week for six months): more than ten months
- skin biopsy of an affected area after the treatment period [2]: free of carcinoma cells
